Assay results reported in patent publication US20200317642A1, “AMINE-SUBSTITUTED HETEROCYCLIC COMPOUNDS AS EHMT2 INHIBITORS AND DERIVATIVES THEREOF” (Epizyme, Inc., priority 2017, published 2020).
Where two headings read alike, the source gives them in different places.

Tests used:
[1] = target: T1, human EHMT2 913-1193 (Homo sapiens, UniProt Q96KQ7); assay: EHMT2 enzyme assay on histone peptide substrate; assay type: biochemical; conditions: histone H3 1-15 peptide, balanced conditions
T1 construct: recombinant purified human EHMT2 913-1193, Viva; purchased Viva
T1 sequence (Q96KQ7 913-1193): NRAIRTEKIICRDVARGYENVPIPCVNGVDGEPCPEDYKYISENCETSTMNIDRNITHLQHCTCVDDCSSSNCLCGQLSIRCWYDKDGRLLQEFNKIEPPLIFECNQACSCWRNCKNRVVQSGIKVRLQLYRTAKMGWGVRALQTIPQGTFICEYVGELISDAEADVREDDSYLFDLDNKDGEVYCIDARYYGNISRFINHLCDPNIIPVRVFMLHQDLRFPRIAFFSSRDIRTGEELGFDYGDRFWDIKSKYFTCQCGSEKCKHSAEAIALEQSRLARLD
Source text: Recombinant purified human EHMT2 913-1193 ([…]) synthesized by Viva was used for all experiments. Biotinylated histone peptides were synthesized by Biopeptide and HPLC-purified to >95% purity. Streptavidin Flashplates and seals were purchased from PerkinElmer and 384 Well V-bottom Polypropylene Plates were from Greiner. ^3H-labeled S-adenosylmethionine (^3H-SAM) was obtained from American Radiolabeled Chemicals with a specific activity of 80 Ci/mmol. Unlabeled SAM and S-adenosylhomocysteine (SAH) were obtained from American Radiolabeled Chemicals and Sigma-Aldrich respectively. Flashplates were washed in a Biotek ELx-405 with 0.1% Tween. 384-well Flashplates and 96-well filter binding plates were read on a TopCount microplate reader (PerkinElmer). Compound serial dilutions were performed on a Freedom EVO (Tecan) and spotted into assay plates using a Thermo Scientific Matrix PlateMate (Thermo Scientific). Reagent cocktails were added by Multidrop Combi (Thermo Scientific).
10-point curves of test compounds were made on a Freedom EVO (Tecan) using serial 3-fold dilutions in DMSO, beginning at 2.5 mM (final top concentration of compound was […] and the DMSO was 2%). A 1 μL aliquot of the inhibitor dilution series was spotted in a polypropylene 384-well V-bottom plate (Greiner) using a Thermo Scientific Matrix PlateMate (Thermo Scientific). The 100% inhibition control consisted of 1 mM final concentration of the product inhibitor S-adenosylhomocysteine (SAH, Sigma-Aldrich). Compounds were incubated for 30 minutes with 40 μL per well of 0.031 nM EHMT2 (recombinant purified human EHMT2 913-1193, Viva) in 1× assay buffer (20 mM Bicine [pH 7.5], 0.002% Tween 20, 0.005% Bovine Skin Gelatin and 1 mM TCEP). 10 μL per well of substrate mix comprising assay buffer, ^3H-SAM (^3H-labeled S-adenosylmethionine, American Radiolabeled Chemicals, specific activity of 80 Ci/mmol), unlabeled SAM (American Radiolabeled Chemicals), and peptide representing histone H3 residues 1-15 containing C-terminal biotin (appended to a C-terminal amide-capped lysine, synthesized by Biopeptide and HPLC-purified to greater than 95% purity) were added to initiate the reaction (both substrates were present in the final reaction mixture at their respective Km values, an assay format referred to as “balanced conditions”). Reactions were incubated for 60 minutes at room temperature and quenched with 10 μL per well of 400 μM unlabeled SAM, then transferred to a 384-well streptavidin Flashplate (PerkinElmer) and washed in a Biotek ELx-405 well washer with 0.1% Tween after 60 minutes. 384-well Flashplates were read on a TopCount microplate reader (PerkinElmer).

[2] = target: T2, EHMT1 (Homo sapiens, UniProt Q9H9B1); assay: EHMT1 PEP enzyme assay; assay type: biochemical
T2 sequence (Q9H9B1 1-1298): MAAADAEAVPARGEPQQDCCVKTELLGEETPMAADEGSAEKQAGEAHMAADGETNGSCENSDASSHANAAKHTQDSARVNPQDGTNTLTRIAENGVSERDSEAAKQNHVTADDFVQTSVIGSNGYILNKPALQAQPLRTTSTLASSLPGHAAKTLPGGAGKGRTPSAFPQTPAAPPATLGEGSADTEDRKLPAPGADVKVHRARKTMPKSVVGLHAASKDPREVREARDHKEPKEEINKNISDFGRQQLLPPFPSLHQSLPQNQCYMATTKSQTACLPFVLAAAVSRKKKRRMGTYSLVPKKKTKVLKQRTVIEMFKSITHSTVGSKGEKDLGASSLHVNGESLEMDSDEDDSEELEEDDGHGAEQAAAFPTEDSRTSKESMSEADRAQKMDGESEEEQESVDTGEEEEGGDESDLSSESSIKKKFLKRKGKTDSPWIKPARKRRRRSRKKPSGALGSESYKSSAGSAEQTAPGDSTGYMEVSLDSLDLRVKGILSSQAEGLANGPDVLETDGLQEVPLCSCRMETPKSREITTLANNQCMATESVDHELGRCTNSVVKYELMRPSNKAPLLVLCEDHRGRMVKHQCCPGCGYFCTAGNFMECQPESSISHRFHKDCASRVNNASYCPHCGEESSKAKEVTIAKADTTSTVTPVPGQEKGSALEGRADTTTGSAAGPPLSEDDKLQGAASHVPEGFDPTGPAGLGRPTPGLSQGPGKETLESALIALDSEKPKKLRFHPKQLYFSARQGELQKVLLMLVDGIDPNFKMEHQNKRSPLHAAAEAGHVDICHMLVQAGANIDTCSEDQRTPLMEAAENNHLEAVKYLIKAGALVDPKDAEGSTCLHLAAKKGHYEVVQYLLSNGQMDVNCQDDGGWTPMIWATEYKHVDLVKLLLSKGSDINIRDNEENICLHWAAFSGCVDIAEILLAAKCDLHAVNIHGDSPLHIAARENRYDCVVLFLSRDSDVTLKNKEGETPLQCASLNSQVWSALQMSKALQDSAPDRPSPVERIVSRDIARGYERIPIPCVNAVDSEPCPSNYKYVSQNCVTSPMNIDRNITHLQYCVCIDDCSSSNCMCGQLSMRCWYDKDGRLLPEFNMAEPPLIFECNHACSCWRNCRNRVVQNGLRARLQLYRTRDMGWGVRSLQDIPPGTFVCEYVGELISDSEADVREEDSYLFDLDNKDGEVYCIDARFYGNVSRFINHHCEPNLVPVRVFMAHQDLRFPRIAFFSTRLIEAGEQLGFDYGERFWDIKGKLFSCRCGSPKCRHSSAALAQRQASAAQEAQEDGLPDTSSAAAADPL

[3] = Table 3A, read-out: EHMT2 (IC50 μM)
[4] = Table 3A, read-out: EHMT1 (IC50 μM)
[5] = Table 3, read-out: EHMT2 PEP (IC50 μM)
[6] = Table 3, read-out: EHMT1 PEP (IC50 μM)

SMILES	IC50 [1, 3]	IC50 [2, 4]	IC50 [1, 5]	IC50 [2, 6]
CNc1cc(C)nc(Nc2ccc(OC)c(-n3ncc4c3CCNC4)c2F)n1 [Compound A9, N2-(2-fluoro-4-methoxy-3-(4,5,6,7-tetrahydro-1H-pyrazolo[4,3-c]142yridine-1-yl)phenyl)-N4,6-dimethylpyrimidine-2,4-diamine]	0.1 to 1 µM	0.1 to 1 µM		
CNc1cc(C)nc(Nc2ccc(OC)c(C#CC[N+](C)(C)CCN)c2)n1 [Compound 45]			> 10 µM	> 10 µM
CNc1cc(C)nc(Nc2ccc(Cl)c(C(=O)Nc3ncco3)c2)n1 [Compound 6]			1 to 10 µM	1 to 10 µM
CNc1cc(C)nc(Nc2ccc(Cl)c(C(=O)NCC3CC3)c2)n1 [Compound 4]			> 10 µM	1 to 10 µM
CNC1=Nc2cc(-n3cc(C4CCCN4)nn3)c(Cl)cc2C12CCC2 (centres unmarked) [Compound A2]	0.01 to 0.1 µM	< 0.01 µM		
CNC1=Nc2cc(-c3cc4n(n3)CCNC4)c(Cl)cc2C12CCC2 [Compound A10, 5′-chloro-N-methyl-6′-(4,5,6,7-tetrahydropyrazolo[1,5-a]pyrazin-2-yl)spiro[cyclobutane-1,3′-indol]-2′-amine]	0.1 to 1 µM	0.01 to 0.1 µM		
CNC1=Nc2cc(-n3cc(CN4CCC4)cn3)c(Cl)cc2C12CCC2 [Compound A17, 6′-(4-(azetidin-1-ylmethyl)-1H-pyrazol-1-yl)-5′-chloro-N-methylspiro[cyclobutane-1,3′-indol]-2′-amine]	0.01 to 0.1 µM	0.01 to 0.1 µM		
CNc1cc(C)nc(Nc2ccc(OC)c(CNCCN3CCC[C@H]3C)c2)n1 [Compound 31]			0.1 to 1 µM	< 0.1 µM
CNCc1cnn(-c2c(OC)ccc(Nc3nc(NC)cc(C(C)C)n3)c2F)c1 [Compound A8, N^2-(2-fluoro-4-methoxy-3-[4-[(methylamino)methyl]-1H-pyrazol-1-yl]phenyl)-N^4-methyl-6-(propan-2-yl)pyrimidine-2,4-diamine]	0.01 to 0.1 µM	< 0.01 µM		
CNC1=Nc2cc(-n3cc([C@@H]4CCCN4)nn3)c(Cl)cc2C12CCC2 [Compound A2S, (S)-5′-chloro-N-methyl-6′-(4-(pyrrolidin-2-yl)-1H-1,2,3-triazol-1-yl)spiro[cyclobutane-1,3′-indol]-2′-amine]	0.1 to 1 µM	0.01 to 0.1 µM		
CNc1cc(C)nc(Nc2ccc(OC)c(CNCCN3CC[C@@H](C)C3)c2)n1 [Compound 38]			1 to 10 µM	0.1 to 1 µM
CNc1cc(C)nc(Nc2ccc(Br)c(CNCCN3CCCC3)c2)n1 [Compound 1, 2-N-[4-bromo-3-([[2-(pyrrolidin-1-yl)ethyl]amino]methyl)phenyl]-4-N,6-dimethylpyrimidine-2,4-diamine]			0.1 to 1 µM	< 0.1 µM
CNc1cc(C)nc(Nc2ccc(Cl)c(C(=O)Nc3cocn3)c2)n1 [Compound 14, 2-chloro-5-[[4-methyl-6-(methylamino)pyrimidin-2-yl]amino]-N-(1,3-oxazol-4-yl)benzamide]			> 10 µM	1 to 10 µM
CNc1cc(C)nc(Nc2ccc(OC)c(C#CCN3CCNCC3)c2)n1 [Compound 28, 2-N-[4-methoxy-3-[3-(piperazin-1-yl)prop-1-yn-1-yl]phenyl]-4-N,6-dimethylpyrimidine-2,4-diamine]			0.1 to 1 µM	< 0.1 µM
CNc1cc(C)nc(Nc2ccc(OC)c(-n3cc4c(n3)CCNC4)c2F)n1 [Compound A19, N2-(2-fluoro-4-methoxy-3-(4,5,6,7-tetrahydro-2H-pyrazolo[4,3-c]pyridin-2-yl)phenyl)-N4,6-dimethylpyrimidine-2,4-diamine]	0.1 to 1 µM	0.1 to 1 µM		
CCNCc1cnn(-c2c(OC)ccc(Nc3nc(C)cc(NC)n3)c2F)c1 [Compound A7]	0.1 to 1 µM	0.01 to 0.1 µM		
CNc1cc(C)nc(Nc2ccc(OC)c(CN[C@H](C)CN3CCCC3)c2)n1 [Compound 48]			1 to 10 µM	0.1 to 1 µM
CNc1cc(C)nc(Nc2ccc(C3CC3)c(CNCCN3CCCC3)c2)n1 [Compound 11, 2-N-[4-cyclopropyl-3-([[2-(pyrrolidin-1-yl)ethyl]amino]methyl)phenyl]-4-N,6-dimethylpyrimidine-2,4-diamine]			0.1 to 1 µM	< 0.1 µM
CNCc1cn(-c2c(OC)cc3c(c2F)N=C(N)C32CCC2)nn1 [Compound A22]	0.01 to 0.1 µM	0.01 to 0.1 µM		
CNc1cc(C)nc(Nc2ccc(Cl)c(C(=O)Nc3ccccc3)c2)n1 [Compound 10]			> 10 µM	1 to 10 µM
CNc1cc(C)nc(Nc2ccc(Cl)c(-n3cc(CN)cn3)c2Cl)n1 [Compound A6]	< 0.01 µM	< 0.01 µM		
CNCc1cn(-c2c(Cl)ccc(Nc3nc(C)cc(NC)n3)c2Cl)nn1 [Compound A13, N2-(2,4-dichloro-3-(4-((methylamino)methyl)-1H-1,2,3-triazol-1-yl)phenyl)-N4,6-dimethylpyrimidine-2,4-diamine]	< 0.01 µM	< 0.01 µM		
